Results as given in patent publication US9387204B2, “Fused bicyclic imidazoles” (BAYER INTELLECTUAL PROPERTY GmbH, priority 2007, dated 2016).
Read-outs that look alike come from different tables or passages of the source.

Tested on: A549 cells
Experiment: Cellular proliferation/cytotoxicity assay (Alamar Blue), A549 cells
Details: read-out: Anti-proliferative/Cytotoxic activity (A549 cells)
[1] = A549 cells, 72 h, Alamar Blue (Resazurin)

N#Cc1ccn2c(-c3ccccc3)c(-c3ccc(CN4CCC(c5noc(-c6ccccn6)n5)CC4)cc3)nc2c1 [Example 115, ′3-phenyl-2-(4-{[4-(5-pyridin-2-yl-1,2,4-oxadiazol-3-yl)piperidin-1-yl]methyl}phenyl)imidazo[1,2-a]pyridine-7-carbonitrile]
IC50 [1]: > 10 µM

c1ccc(-c2c(-c3ccc(CN4CCC(c5n[nH]c(-c6ncccn6)n5)CC4)cc3)nc3ncccn23)cc1 [Example 79, ′3-phenyl-2-(4-{[4-(5-pyrimidin-2-yl-1H-1,2,4-triazol-3-yl)piperidin-1-yl]methyl}phenyl)imidazo[1,2-a]pyrimidine]
IC50 [1]: > 10 µM

COc1ccn2c(-c3ccccc3)c(-c3ccc(CN4CCC(c5n[nH]c(-c6ccccn6)n5)CC4)cc3)nc2n1 [Example 24, 7-methoxy-3-phenyl-2-(4-{[4-(5-pyridin-2-yl-1,2,4-triazol-3-yl)piperidin-1-yl]methyl}phenyl)imidazo[1,2-a]pyrimidine]
IC50 (Homo sapiens, A549, 72 h): < 10 µM

Clc1ccn2c(-c3ccccc3)c(-c3ccc(CN4CCC(c5nnc(-c6ccccn6)[nH]5)CC4)cc3)nc2c1 [Example 54, 7-chloro-3-phenyl-2-(4-{[4-(5-pyridin-2-yl-4H-1,2,4-triazol-3-yl)piperidin-1-yl]methyl}phenyl)imidazo[1,2-a]pyridine]
IC50 (Homo sapiens, A549, 72 h): < 10 µM

c1ccc(-c2c(-c3ccc(CN4CCC(c5nnc(-c6nccs6)[nH]5)CC4)cc3)nc3sccn23)cc1 [Example 87, ′5-phenyl-6-[4-({4-[5-(1,3-thiazol-2-yl)-4H-1,2,4-triazol-3-yl]piperidin-1-yl}methyl)phenyl]imidazo[2,1-b][1,3]thiazole]
IC50 [1]: < 10 µM

c1ccc(-c2c(-c3ccc(CN4CCC(c5n[nH]c(-c6nccs6)n5)CC4)cc3)nc3scnn23)cc1 [Example 88, ′5-phenyl-6-[4-({4-[5-(1,3-thiazol-2-yl)-1H-1,2,4-triazol-3-yl]piperidin-1-yl}methyl)phenyl]imidazo[2,1-b][1,3,4]thiadiazole]
IC50 [1]: < 10 µM

Cc1ccn2c(-c3ccccc3)c(-c3ccc(CN4CCC(c5nnc(-c6ccccn6)[nH]5)CC4)cc3)nc2c1 [Example 50, 7-methyl-3-phenyl-2-[4-({4-[5-(pyridin-2-yl)-4H-1,2,4-triazol-3-yl]piperidin-1-yl}methyl)phenyl]imidazo[1,2-a]pyridine]
IC50 (Homo sapiens, A549, 72 h): > 10 µM

CCc1nn2c(-c3ccccc3)c(-c3ccc(CN4CCC(c5nnc(-c6ccccn6)[nH]5)CC4)cc3)nc2s1 [Example 51, 2-ethyl-5-phenyl-6-(4-{[4-(5-pyridin-2-yl-4H-1,2,4-triazol-3-yl)piperidin-1-yl]methyl}phenyl)imidazo[2,1-b][1,3,4]thiadiazole]
IC50 (Homo sapiens, A549, 72 h): < 10 µM

c1ccc(-c2c(-c3ccc(CN4CCC(c5n[nH]c(-c6ccccn6)n5)CC4)cc3)nc3cnccn23)cc1 [Example 37, 3-phenyl-2-(4-{[4-(5-pyridin-2-yl-1,2,4-triazol-3-yl)piperidin-1-yl]methyl}phenyl)imidazo[1,2-a]pyrazine]
IC50 (Homo sapiens, A549, 72 h): > 10 µM

Fc1ccc2nc(-c3ccc(CN4CCC(c5n[nH]c(-c6ccccn6)n5)CC4)cc3)c(-c3ccccc3)n2c1 [Example 22, 6-fluoro-3-phenyl-2-(4-{[4-(5-pyridin-2-yl-1,2,4-triazol-3-yl)piperidin-1-yl]methyl}phenyl)imidazo[1,2-a]pyridine]
IC50 (Homo sapiens, A549, 72 h): > 10 µM

Cc1ccc(-c2nnc(C3CCN(Cc4ccc(-c5nc6ncccn6c5-c5ccccc5)cc4)CC3)[nH]2)nc1 [Example 70, ′2-[4-({4-[5-(5-methylpyridin-2-yl)-4H-1,2,4-triazol-3-yl]piperidin-1-yl}methyl)phenyl]-3-phenylimidazo[1,2-a]pyrimidine]
IC50 [1]: < 10 µM

O=C(O)c1cn2c(-c3ccccc3)c(-c3ccc(CN4CCC(c5nnc(-c6ccccn6)[nH]5)CC4)cc3)nc2s1 [Example 127, ′5-phenyl-6-(4-{[4-(5-pyridin-2-yl-4H-1,2,4-triazol-3-yl)piperidin-1-yl]methyl}phenyl)imidazo[2,1-b][1,3]thiazole-2-carboxylic acid]
IC50 [1]: > 10 µM
